Data set [1] deals with MCF-7 cells. Description: MTT cytotoxicity assay in MCF-7 cells. The settings on record: means ± sd, n = 3. It is filed as cell-based, human. The procedure:
The in vitro anticancer activity of the designed coumarin-thiosemicarbazones and coumarin-thiazolidine-4-one hybrids against MCF-7 cells was tested using the MTT assay, and 5-fluorouracil (5-FU) was used as the reference drug. The tested compounds were used in different concentrations, and cell survival was determined after incubation for 48 h as reported. The cytotoxic activity is represented in Table 1 as IC50 (µM) values.
(§1) MCF-7 breast cancer cell line (ATCC® HTB-22™) plus non-tumorigenic epithelial cell line (MCF 10, ATCC® CRL-10317™) were supplied from VACSERA (Cairo, Egypt) and cultured in Dulbecco’s Modified Eagle Medium (Invitrogen-Life Technologies, Carlsbad, CA, USA) with 1% antibiotic solution (streptomycin–penicillin) plus 10% fetal bovine serum (Hyclone) in a 5% (v/v) humidified CO2 incubator at 37 °C.
Firstly, cells were kept in a humidified atmosphere (37 °C, 24 h), and then incubated with serial concentrations of the tested compounds. After 48 h, the medium was aspirated, and then cells were incubated with 5% MTT solution (M-5655; Sigma Aldrich, St. Louis, MO USA) (200 µL/well, 2 h), allowing the dye to metabolize into the colored insoluble formazan complex that was then dissolved in the appropriate solubilization solution (M-8910) (200 µL/well), for 30 min with gentle mixing at room temperature. The UV absorbance was measured using a microplate reader (570 nm), and cell viability was determined with respect to untreated control cells. […] The values were means ± sd; n = 3.

The subject of data set [2] is MCF 10 non-tumorigenic epithelial cell line. Description: MTT assay in non-cancerous epithelial cells (MCF 10). It counts as cell-based. The settings on record: for IC50: Homo sapiens, MCF10, MTT assay, non-cancerous epithelial cells, means ± sd, n = 3; for Selectivity Index MCF-10/MCF-7: ratio of IC50 MCF-10 to IC50 MCF-7. The procedure:
as §1
Firstly, cells were kept in a humidified atmosphere (37 °C, 24 h), and then incubated with serial concentrations of the tested compounds. After 48 h, the medium was aspirated, and then cells were incubated with 5% MTT solution (M-5655; Sigma Aldrich, St. Louis, MO USA) (200 µL/well, 2 h), allowing the dye to metabolize into the colored insoluble formazan complex that was then dissolved in the appropriate solubilization solution (M-8910) (200 µL/well), for 30 min with gentle mixing at room temperature. The UV absorbance was measured using a microplate reader (570 nm), and cell viability was determined with respect to untreated control cells.

For another data set, the system named is PI3K α. The settings on record: cited from earlier work.
In another data set the test system is PI3K δ. The settings on record: cited from earlier work.
Data set [3] deals with MCF-7 cells. Description: Cell cycle analysis by flow cytometry (propidium iodide). It is filed as cell-based, human. The settings on record: MCF-7, treated at IC50, 48 h. The procedure: VIIb-treated cells were subjected to cell cycle phase distribution analysis as well as apoptosis rates determination by flow cytometric analysis in MCF-7 cells, as reported.
Control and VIIb-treated (IC50 µM, 48 h) MCF-7 cells were harvested and then subjected to cell cycle analysis by flow cytometry.
Cell cycle analysis and apoptosis rates following VIIb treatment were investigated using a Propidium Iodide Flow Cytometry Kit (ab139418; Abcam, Cambridge, UK) and Annexin V-FITC apoptosis kit (Catalog: K101-25; BioVision Research Products, San Francisco, CA, USA), respectively, following the manufacturer’s instructions as stated by a previous study.
(In flow cytometry, cells or beads pass a laser one at a time.)

The subject of the next data set is Akt. The settings on record: Figure 1, reported Akt inhibitor; cited from earlier work.
In a further data set the target is T1, Akt-1 (Homo sapiens, UniProt P31749).
T1 construct: purchased Abcam ab139436
Description: Akt Kinase Activity assay kit. It is filed as biochemical. The settings on record: means ± sd, n = 3; read-out: IC50 (µM) Akt-1 Isoform. The source says:
Accumulating evidence highlighted that PI3K signaling pathway upregulation is highly implicated in breast cancer development and disease progression as well as resistance to hormones and cytotoxic therapy. Therefore, it is essential to elucidate the effect of the novel compound, VIIb, on the PI3K/Akt signaling pathway by using in vitro PI3K class 1A enzyme inhibition assay conducted on PI3K-α and PI3K-γ isoforms as well as an Akt-1 enzyme inhibition assay. […] Furthermore, targeting the PI3K-γ isoform in breast cancer could contribute to enhancing the anti-tumor immunity.
The in vitro inhibition of PI3K and Akt kinase activities by VIIb was assessed using a PI3Kα (p110α/p85) assay kit (Catalog #79781; BPS Bioscience, Inc, San Diego, CA, USA), PI3Kγ (p110γ/PIK3R5) assay kit (Catalog #79803; BPS Bioscience, Inc, San Diego, CA, USA), and Akt Kinase Activity assay kit (ab139436; Abcam, Cambridge, UK) following the manufacturer’s instructions as described previously. The results were expressed as IC50 values using dose–response curves and linear regression equations. LY294002 compound was taken as the reference compound. The values were means ± sd; n = 3.

For the next data set, the system named is PI3K β. The settings on record: Figure 1, pan PI3K inhibitor; cited from earlier work.

Where two headings read alike, the source gives them in different places.

T1 sequence (P31749 whole entry, species assumed): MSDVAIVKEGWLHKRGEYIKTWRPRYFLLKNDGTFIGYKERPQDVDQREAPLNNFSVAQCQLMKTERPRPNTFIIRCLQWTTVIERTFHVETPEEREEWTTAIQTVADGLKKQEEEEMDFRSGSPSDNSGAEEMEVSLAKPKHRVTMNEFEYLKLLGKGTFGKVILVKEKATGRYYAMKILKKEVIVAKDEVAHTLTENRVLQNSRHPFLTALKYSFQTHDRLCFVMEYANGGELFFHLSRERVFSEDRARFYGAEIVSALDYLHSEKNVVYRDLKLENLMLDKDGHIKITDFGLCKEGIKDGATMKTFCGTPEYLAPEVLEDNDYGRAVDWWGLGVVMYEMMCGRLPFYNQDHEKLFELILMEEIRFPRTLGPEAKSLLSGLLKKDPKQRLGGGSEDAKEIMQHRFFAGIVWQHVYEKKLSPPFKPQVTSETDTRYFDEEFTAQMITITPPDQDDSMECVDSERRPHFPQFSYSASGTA

For orientation: IC50 means the midpoint of a concentration-inhibition curve. The molecule `C/C(=N/NC(=S)NC(=O)c1ccccc1)c1c(O)ccc2c(C)cc(=O)oc12` [Vb] came in with an IC50 in the data set on MCF-7 cells [1] (Homo sapiens, MCF7, 48 h) of 47.3 ± 2.47 µM.

Turning to `CCOc1ccc2c(C)cc(=O)oc2c1C(C)=NN=C1SCC(=O)N1C(=O)c1ccccc1` (mixture of isomers) [VIIIe, (Z/E)-3-Benzoyl-2-{[1-(7-ethoxy-4-methylcoumarin-8-yl)-ethylidene]-hydrazono}-thiazolidin-4-one], in the data set with MCF-7 cells [1] (48 h), the IC50 was 26.4 ± 1.38 µM.

In the case of `CCOc1ccc2c(C)cc(=O)oc2c1C(C)=NN=C1SCC(=O)N1C` (mixture of isomers) [VIIIa, (Z/E)-2-{[1-(7-Ethoxy-4-methylcoumarin-8-yl)-ethylidene]-hydrazono}-3-methyl-thiazolidin-4-one], the IC50 in the data set on MCF-7 cells [1] (48 h) stood at 20.3 ± 1.06 µM.

For `CCOc1ccc2c(C)cc(=O)oc2c1/C(C)=N\NC(=S)Nc1ccc(OC)cc1` [VIf], the IC50 in data set [2] was 20.1 ± 1.05 µM; in the data set with MCF-7 cells [1] (Homo sapiens, MCF7, 48 h) it was 1.21 ± 0.06 µM. In data set [2], the “Selectivity Index MCF-10/MCF-7” value is 16.61.

Turning to `O=c1[nH]cc(F)c(=O)[nH]1` [Compound 5-FU, 5-fluorouracil, reference compound], in data set [2], the IC50 was determined as 36.2 ± 1.89 µM and the “Selectivity Index MCF-10/MCF-7” value was 1.30. The same molecule returned an IC50 in the data set with MCF-7 cells [1] (Homo sapiens, MCF7, 48 h) of 27.8 ± 1.41 µM.

As a reminder, the melting point is the temperature, or range, at which the solid turns liquid. On to `CCNC(=S)N/N=C(/C)c1c(OCC)ccc2c(C)cc(=O)oc12` [VIb, (Z/E)-1(1-(7-ethoxy-4-methylcoumarin)ethylidene)-4-ethyl-thiosemicarbazone], for which the melting point came to 183 °C. The molecule also displayed an IC50 with MCF-7 cells [1] (Homo sapiens, MCF7, 48 h) of 38.7 ± 2.09 µM.

As to `CS(=O)(=O)N1CCN(Cc2cc3nc(-c4cccc5[nH]ncc45)nc(N4CCOCC4)c3s2)CC1` [Pictilisb], the IC50 in the data set with PI3K α (Figure 1, PI3Ka/d, read-out: IC50 (a)) was […]; with PI3K δ (Figure 1, PI3Ka/d) it was […].

With `CCOc1ccc2c(C)cc(=O)oc2c1/C(C)=N\NC(=S)NC(=O)c1ccccc1` [VIe, (Z/E)-1(1-(7-ethoxy-4-methylcoumarin)ethylidene)-4-benzoyl-thiosemicarbazone], the melting point is 220 to 223 °C. This molecule also displayed an IC50 in the data set with MCF-7 cells [1] (Homo sapiens, MCF7, 48 h) of 43.1 ± 2.25 µM.

For `C=CCN1C(=O)CSC1=NN=C(C)c1c(OCC)ccc2c(C)cc(=O)oc12` (mixture of isomers) [VIIIc, (Z/E)-3-Allyl-2-{[1-(7-ethoxy-4-methylcoumarin-8-yl)-ethylidene]-hydrazono}-thiazolidin-4-one], half-maximal inhibition in the data set with MCF-7 cells [1] (48 h) (IC50) was put at 4.95 ± 0.26 µM.

`CCOc1ccc2c(C)cc(=O)oc2c1/C(C)=N\NC(=S)NCc1ccccc1` [VId, (Z/E)-1(1-(7-ethoxy-4-methylcoumarin)ethylidene)-4-benzyl-thiosemicarbazone] registered a melting point of 140 to 143 °C. In the data set on MCF-7 cells [1] (Homo sapiens, MCF7, 48 h), this molecule registered an IC50 of 2.61 ± 0.14 µM.

Consider `CCOc1ccc2c(C)cc(=O)oc2c1C(C)=NN=C1SCC(=O)N1CC` (mixture of isomers) [VIIIb, (Z/E)-2-{[1-(7-Ethoxy-4-methylcoumarin-8-yl)-ethylidene]-hydrazono}-3-ethyl-thiazolidin-4-one], for which, in the data set on MCF-7 cells [3] (control 1.55), the “DNA Content % Pre G1” value is recorded as 35.25%. Also, in the data set with MCF-7 cells [3] (control 9.71), the “DNA Content % G2/M” value was 5.59%. In addition, in the data set with MCF-7 cells [3] (control 36.58), the “DNA Content % S” value was found to be 46.02%. The “DNA Content % G0/G1” value in the data set with MCF-7 cells [3] (control 53.71) is 48.39%. In the data set with MCF-7 cells [1] (48 h), this molecule yielded an IC50 of 57.3 ± 2.99 µM.

Turning to `NC1(c2ccc(-c3nc4ccn5c(=O)[nH]nc5c4cc3-c3ccccc3)cc2)CCC1` [MK-2206], the IC50 in the data set on Akt is 0.008 µM.

As to `CCOc1ccc2c(C)cc(=O)oc2c1/C(C)=N\NC(=S)NC` [VIa, (Z/E)-1(1-(7-ethoxy-4-methylcoumarin)ethylidene)-4-methyl-thiosemicarbazone], the melting point lay in the range of 202 to 204 °C. In the data set with MCF-7 cells [1] (Homo sapiens, MCF7, 48 h), this molecule displayed an IC50 of 11.1 ± 0.58 µM.

`O=c1cc(N2CCOCC2)oc2c(-c3ccccc3)cccc12` [LY294002, reference compound]: the half-inhibitory concentration (IC50) on Akt-1 is 3.53 ± 0.18 µM.

For the molecule `CCOc1ccc2c(C)cc(=O)oc2c1C(C)=NN=C1SCC(=O)N1Cc1ccccc1` (mixture of isomers) [VIIId, (Z/E)-3-Benzyl-2-{[1-(7-ethoxy-4-methylcoumarin-8-yl)-ethylidene]-hydrazono}-thiazolidin-4-one], the IC50 in the data set with MCF-7 cells [1] (48 h) amounted to 79.9 ± 4.18 µM.

Turning to `COc1ccc(-c2nc(N/N=C/c3c[nH]c4ccccc34)nc(N3CCOCC3)c2C#N)cc1` [Compound 1], the IC50 in the data set on PI3K α (Figure 1, pan PI3K inhibitor, read-out: IC50 (α)) is 0.96 µM; in the data set on PI3K δ (Figure 1, pan PI3K inhibitor) it was 0.64 µM; in the data set on PI3K β, 0.94 µM.

Molecule `C=CCNC(=S)N/N=C(/C)c1c(OCC)ccc2c(C)cc(=O)oc12` [VIc, (Z/E)-1(1-(7-ethoxy-4-methylcoumarin)ethylidene)-4-allyl-thiosemicarbazone] had a melting point of 100 to 102 °C. The molecule further returned an IC50 in the data set on MCF-7 cells [1] (Homo sapiens, MCF7, 48 h) of 2.72 ± 0.13 µM.

The molecule `C/C(=N/NC(=S)NCc1ccccc1)c1c(O)ccc2c(C)cc(=O)oc12` [Va] yielded an IC50 in the data set on MCF-7 cells [1] (Homo sapiens, MCF7, 48 h) of 5.13 ± 0.28 µM.

Source of the values: article PMC9027131, “Dual PI3K/Akt Inhibitors Bearing Coumarin-Thiazolidine Pharmacophores as Potential Apoptosis Inducers in MCF-7 Cells” (Pharmaceuticals, 2022).
